79 molecules from the METLIN SMRT retention time set (Domingo-Almenara et al. 2019) can be followed below.

A short description of this data set: gradient 5% acetonitrile 3 min, to 50% in 2 min, to 85% in 15 min, held 3 min, 100 µL/min. The following applies: column: Zorbax Extend-C18 2.1 x 50 mm; eluents: water / acetonitrile, 0.1% formic acid. Put shortly:
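Using water and acetonitrile that each contained 0.1% formic acid, mixtures of ~100 pure standards were separated at 100 μL/min on a Zorbax Extend-C18 column (2.1 × 50 mm, 1.8 μm). The HPLC fed a quadrupole time-of-flight mass spectrometer working in positive and negative ionization mode, with dead and dwell volumes of 40 μL and 900 μL. Data were acquired over 3 months. Retention time was read from computationally picked adduct peaks after manual inspection of each.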
Molecule `Cc1ccc(-n2nc(C)c3sc(N(C)CC(=O)N4CCC5(CC4)OCCO5)nc32)cc1` returned an RP-LC retention time of 932 s.

The molecule `CCOc1ccc(-c2cc(=O)n(CCCC(=O)N3CCN(S(C)(=O)=O)CC3)cn2)cc1` had an RP-LC retention time of 680 s.

In turn, `CCn1cc(C)c(C(=O)O)c1CC(=O)N1CCOCC1` showed an RP-LC retention time of 619 s. `COc1cccc(-c2noc(CN3C(=O)COc4ccc(Cl)cc43)n2)c1` returned an RP-LC retention time of 1070 s. The same measure for `Cc1ccc(-n2c(-c3ccc(Cl)cc3)cn3c4c(=O)n(C)c(=O)n(C)c4nc23)c(C)c1`: 1110 s; for `CC1=C(c2ccc(C)c(C)c2)S(=O)(=O)N=C1N1CCC(C(=O)NCCN2CCCC2)CC1`: 661 s; for `O=C(c1cnccn1)N1CCCn2nc(-c3ccc(Cl)cc3)cc2C1`: 788 s. The same measure for `CCOC(=O)c1noc2nc(C)nc(NCCCN3CCN(c4cccc(C)c4)C(C)C3)c12` (centres undefined): 739 s; for `CNC(=O)c1cc(-c2ccccc2Cl)n[nH]1`: 668 s.

With `CCSc1ccccc1C(=O)Nc1cccc2ccc(-n3ccnc3)nc12`, the RP-LC retention time came to 668 s. The same measure for `CC(C)(CO)NC(=O)Cc1ccc(NC(=O)c2ccc(Cl)s2)cc1`: 704 s; for `O=C(Cn1cccc1-c1nnc(C2CCC2)o1)NCc1ccc2c(c1)OCO2`: 836 s; for `CCN(CC)c1nc(-c2ccc(C(C)(C)C)cc2)nc2ccccc12`: 943 s. The same measure for `Cc1ccc(C)c(-c2cc3c4nn(CC(=O)NCc5ccco5)c(=O)n4ccn3n2)c1`: 883 s; for `COC(=O)c1ccccc1Nc1c(-c2ccc(Cl)cc2)nc2cnccn12`: 1130 s. Consider `COc1ccc(CNC(=O)c2ccc(CN3CC(=O)N4CCCCC4C3=O)cc2)cc1` (centres undefined), for which the RP-LC retention time was found to be 683 s.

`COc1ccc(NC(=O)C2CCN(S(=O)(=O)c3ccc4c(c3)NC(=O)C(C)O4)CC2)cc1Cl` (centres undefined) displayed an RP-LC retention time of 853 s. `CCc1noc2nc(C)n(CC(=O)NCCCc3ccccc3)c(=O)c12`: the RP-LC retention time worked out at 832 s. As to `CN(C1CCC1)C1CCc2nn(Cc3ccccc3)c(=O)n2CC1` (centres undefined), the RP-LC retention time came to 590 s. In turn, `CCC(=O)N(C)CCc1noc(COc2cccc(C(F)(F)F)c2)n1` registered an RP-LC retention time of 842 s. `CCc1ccc(NC(=O)N2CCC3(CC2)NC(=O)c2ccc(Cl)cc2N3CC)cc1` returned an RP-LC retention time of 968 s. The molecule `O=C1/C(=C/c2ccccc2)CN(C(=O)/C=C/c2ccccc2)C/C1=C\c1ccccc1` returned an RP-LC retention time of 1140 s. In turn, `Cc1cccc(NC(=O)N2CCN(c3cnn4c(C)nnc4c3)CC2)c1` displayed an RP-LC retention time of 627 s. For `CCn1cnc(S(=O)(=O)N2CCC(C(=O)Nc3ccc(F)cc3)CC2)c1`, the RP-LC retention time is 709 s. Turning to `COCCC1(NC(=O)c2ocnc2C)CCN(S(C)(=O)=O)CC1`, the RP-LC retention time came to 614 s. In turn, `COc1cccc(S(=O)(=O)N2CCCC(Cn3c(C)nc4cccnc43)C2)c1` (centres undefined) yielded an RP-LC retention time of 693 s. The same measure for `CCOc1ccc2c(n1)CCN(C(=O)Nc1ccccc1OCC)C2`: 973 s; for `CCc1nnc2ccc(-c3noc(Cc4ccc(Cl)cc4)n3)cn12`: 932 s; for `Cc1cccc(OCc2nc(-c3ccnc(N4CCCC4)c3)no2)c1`: 725 s. On to `Fc1ccc(C(OCCN2CCN(C/C=C/c3ccccc3)CC2)c2ccc(F)cc2)cc1`, for which the RP-LC retention time turned out to be 916 s. `COc1ccc(NC(=O)Cn2cnc3c(sc4nc(-c5ccccc5)ccc43)c2=O)cc1OC` gave an RP-LC retention time of 899 s. The same measure for `O=c1c2cc3c(cc2nc(SCc2nc(-c4cccc(F)c4)no2)n1Cc1ccncc1)OCO3`: 795 s. The same measure for `Cc1nn(-c2ccccc2)c(C)c1S(=O)(=O)N1CCC(C(=O)NCCc2ccccc2)CC1`: 812 s; for `Cc1cccc(-c2noc(CN3C(=O)C(C)Oc4ccccc43)n2)c1` (centres undefined): 1110 s; for `CC(=O)Nc1ccc(CCc2nc3ccc(C(=O)NC4CCCCCC4)cc3[nH]2)cc1`: 650 s.

With `Cc1cccc(NS(=O)(=O)c2ccc(-c3c(C)noc3C)cc2)c1`, the RP-LC retention time was determined as 881 s. In turn, `CS(=O)(=O)N1CCC(C(=O)N2CCC(COCc3ccccc3)CC2)CC1` gave an RP-LC retention time of 772 s. For `COc1ccc(CNC(=O)C2CCCN(c3nnc4ccc(Cl)cn34)C2)c(OC)c1` (centres undefined), the RP-LC retention time turned out to be 753 s. The same measure for `CN1CCN(CCNC(=O)C2CCCN(c3ncnc4c3nc3n4CCCCC3)C2)CC1` (centres undefined): 570 s.

The molecule `O=C(CN1C(=O)C(C(=O)N2CCCCC2)Sc2ccccc21)NCCC1=CCCCC1` (centres undefined) returned an RP-LC retention time of 1120 s. Regarding `CCCn1c(=O)sc2cc(S(=O)(=O)N3CCC(C(=O)Nc4cc(C)ccn4)CC3)ccc21`, the RP-LC retention time is 844 s. Consider `c1ccc(-c2cn3c(n2)SCC3)cc1`, for which the RP-LC retention time is 549 s. In the case of `O=C(Cc1ccc(F)cc1)Nc1nnc(C2CC(=O)N(c3ccc(Cl)cc3)C2)o1` (centres undefined), the RP-LC retention time was determined as 789 s.

In the case of `O=C(Nc1ccc2nncn2c1)Nc1ccccc1F`, the RP-LC retention time was found to be 659 s.

Molecule `COc1cccc(NC(=O)Nc2nccn(-c3ccc(Br)cc3)c2=O)c1` had an RP-LC retention time of 983 s.

`Cc1cc(=O)n(CC(=O)Nc2ccc(F)c(Cl)c2)c(N2CCOCC2)n1` gave an RP-LC retention time of 677 s. The molecule `CC1Cc2ccccc2N1S(=O)(=O)CCCOc1ccc2c(c1)OCO2` (centres undefined) registered an RP-LC retention time of 1020 s. As to `Cc1cnc(C(=O)N2CCCCCNC(=O)[C@@H]3CCC[C@@H]32)cn1`, the RP-LC retention time is 623 s. Regarding `CCCCNC(=O)Cc1c(OC)ccc2cc(Br)ccc12`, the RP-LC retention time came to 947 s. For the molecule `Cc1cc([N+](=O)[O-])ccc1NC(=O)C1COc2ccccc2O1` (centres undefined), the RP-LC retention time is 920 s.

Regarding `CCOC(=O)C1CCN(S(=O)(=O)c2ccc3c(c2)-c2oncc2CO3)CC1`, the RP-LC retention time was found to be 908 s.

In turn, `Cc1cc(C)nc(Sc2ccc(S(C)(=O)=O)cc2[N+](=O)[O-])n1` returned an RP-LC retention time of 750 s. The molecule `C[C@H]1CN(C(=O)C2CCCC2)C[C@@H]1c1nc(-c2ccccc2)no1` displayed an RP-LC retention time of 1060 s.

`O=C(O)c1cc(=O)c2cc(Cl)ccc2[nH]1` registered an RP-LC retention time of 692 s.

`O=C(NC1CCc2nnc(C3CC3)n2CC1)c1ccc(Cn2cncn2)o1` (centres undefined) displayed an RP-LC retention time of 558 s. Consider `COc1ccc(-n2c(=O)c(C(=O)NC(C)c3ccc(F)cc3)c(O)c3cccnc32)cc1` (centres undefined), for which the RP-LC retention time was 1220 s. The same measure for `COc1cc2ncc(S(=O)(=O)c3ccc(C)c(C)c3)c(N3CCN(C)CC3)c2cc1OC`: 629 s; for `O=C(NCc1ccccc1)c1c(O)c2cccnc2n(Cc2ccccc2)c1=O`: 1370 s; for `O=C(NC1CC1)c1cccc(OCC2CCCN(C(=O)C3CCC3)C2)c1` (centres undefined): 789 s.

For the molecule `CN(C)c1nn(CC(=O)Nc2ccc(F)c(Cl)c2)c(=O)c2ccccc12`, the RP-LC retention time came to 928 s.

Consider `Cc1ccc2[nH]cc(CCN3CC(C(=O)NCCc4ccc(F)cc4)CC3=O)c2c1` (centres undefined), for which the RP-LC retention time is 821 s. For `Cc1c(C(=O)C(=O)NCc2ccccn2)c2ccccc2n1C`, the RP-LC retention time was 625 s. For the molecule `COc1ccc(S(=O)(=O)N2CCCC(c3nnnn3-c3ccccc3)C2)cc1` (centres undefined), the RP-LC retention time was found to be 905 s.

In the case of `CCC(C)NC(=O)Cn1c(=O)cc(-c2nc(C)no2)c2ccccc21` (centres undefined), the RP-LC retention time was found to be 755 s.

With `Cc1nn(CC(=O)N2CCc3ccccc3C2)c(=O)c2nn(-c3ccccc3)c(C)c12`, the RP-LC retention time was 820 s. Molecule `c1ccc(C2(c3nc(-c4ccc(-n5cccn5)nc4)no3)CC2)cc1` returned an RP-LC retention time of 1240 s. The same measure for `COCCNC(=O)Cn1c(N2CCCC2)nc(COC)cc1=O`: 570 s; for `CNC(=O)CCc1nc2ccccc2n(CC(=O)NCCc2ccc(S(N)(=O)=O)cc2)c1=O`: 612 s.

For the molecule `COc1ccc(OC)c(CNS(=O)(=O)c2cccc(-c3nc(-c4ccc(C)cc4)no3)c2)c1`, the RP-LC retention time amounted to 1220 s. Molecule `CC1Cc2ccccc2N1C(=O)Cc1csc(NC(=O)c2ccc(=O)[nH]c2)n1` (centres undefined) gave an RP-LC retention time of 647 s. As to `O=C(Nc1cccc(F)c1)c1nnc(CCCC(=O)N2CCN(c3ccccn3)CC2)s1`, the RP-LC retention time amounted to 646 s. `CCC(c1cccs1)N1C(=O)[C@H]2CN(S(=O)(=O)c3ccc(OC)cc3)C[C@H]2C1=O` (some centres undefined) returned an RP-LC retention time of 910 s. As for `CSc1cccc(NC(=O)N2CCN(C3=CC4=NC(C)CN4C=N3)CC2)c1` (centres undefined), the RP-LC retention time came out at 638 s. As for `Cc1nc(OCC(=O)NCc2ccc(F)cc2)c2ccccc2n1`, the RP-LC retention time worked out at 705 s. Regarding `CN(C)c1cc(OC2CCN(C(=O)c3cccc4[nH]ccc34)C2)ncn1` (centres undefined), the RP-LC retention time was 622 s. The molecule `O=C(CN1C(=O)CCCc2cc(S(=O)(=O)N3CCCCC3)ccc21)N1CCc2ccccc2C1` registered an RP-LC retention time of 922 s. As for `COc1ccccc1-c1noc(Cn2ncn3nc(-c4cccs4)cc3c2=O)n1`, the RP-LC retention time was 948 s. Molecule `Cc1ccc(OCC(O)CN2CCN(CC(O)COC(C)C)CC2)c(C(C)(C)C)c1` (centres undefined) showed an RP-LC retention time of 607 s. As to `O=C(CSc1ccc(S(=O)(=O)c2ccccc2)nn1)Nc1ccc2c(c1)OCCO2`, the RP-LC retention time was found to be 821 s.
